System: HeLa cells
Experiment: Fluorescence microscopy assay of cell permeability
Type: cell-based
Settings: 5 mM, 1 hour, streptavidin-Cy5
Method: The cells were then incubated in serum free media for 2 hours, followed by incubation with APB (5 mM) in serum free media (500 μL) for 1 hour. […] Cells were incubate with paraformaldehyde (4%, 500 μL) for 20 minutes at room temperature, then washed with 1×PBS (500 μL) three times. […] Streptavidin Cy5 (10 ug/mL) in blocking buffer (50 μL) was added and incubated with cells for 30 minutes. […] Cells were incubated with DAPI (100 μg/mL) for 5 minutes, followed by washing with 1×PBS (500 μL) 3 times each for 5 min. The cover slips were washed in water then installed on a glass slide containing Mowiol mounting solution (50 μL, Sigma Aldrich) saturated with DABCO (Sigma Aldrich). The slide was incubate at 31° C. for 30 minutes, and then kept at 4° C. until microscopy. Fluorescence photos were generated on an Olympus fluorescence microscope using laser wavelengths corresponding to DAPI (350 nm) and Cy5 (650 nm). DAPI photos were generated at 10 ms and Cy5 at 200 ms. Merged images were created using Adobe Photoshop.

biotin fluorescence signal in cells (cell permeability): no biotin signal
Structure (SMILES): Nc1ncnc2c1ncn2[C@@H]1O[C@H](COP(=O)(O)OP(=O)(O)OP(=O)(O)O)[C@@H](O)[C@H]1O [ATP, adenosine-5′-triphosphate, reference compound]

Reference: patent US10429397B2 (priority 2015, dated 2019)
